This is an account of results in patent US20220031710A1, “USE OF ERK5 INHIBITORS FOR TREATING GLIOMAS IN PEDIATRIC SUBJECTS” (UNIVERSITY OF PITTSBURGH - OF THE COMMONWEALTH SYSTEM OF …, priority 2019, published 2022).

One assay deals with MYCN. The assay can be described thus: MYCN qRT-PCR and western blot in DIPG-13p cells. It counts as cell-based, human. The protocol:
Cell pellets were lysed in PLC lysis buffer containing protease and phosphatase inhibitors (Roche Inc.). Protein lysates were quantified using the bicinchoninic acid (BCA) assay (Pierce Chemical Co., Rockford, Ill.). 30 μg of total protein lysate was loaded in 10% SDS-PAGE gels and electrophoresed. Proteins were transferred to PVDF membranes using a semi-dry transfer apparatus (Bio-Rad). Membranes were blocked for one hour and probed for various proteins overnight in 5% non-fat milk or 5% BSA in Tris Buffered Saline Solution, 0.5% Tween-20 (TBST) or Phosphate Buffered Saline Solution with 0.5% Tween-20 (PBST). […] Binding was detected using Chemiluminescence Reagent Plus (PerkinElmer Inc., MA, USA). […]
Total RNA isolation was performed using an RNA extraction kit according to the manufacturer's instructions (RNeasy kit, Qiagen). cDNA was synthesized from 100 ng of total RNA using the Quantitect RT kit which included DNAse treatment (Qiagen). Quantitative real-time PCR was performed on 10 ng of cDNA template in a final volume of 20 μl using the Chromo4 Real Time PCR detector (MJ Research, a Division of Bio-Rad Laboratories Ltd) using SYBR green fluorescence. RT-PCR data was analyzed using Opticon Monitor 3.1.3 analysis software. […]

The test system of assay [1] is SF8628 intracranial xenografts. As to the kind of experiment: SF8628 orthotopic xenograft model. It counts as in vivo, mice. Here is the method:
(§1) Paraffin embedded blocks were cut in 5 μm sections. Slides were processed as follows: de-waxed in xylene followed by rehydration in a standard alcohol series. Antigen retrieval was by pressure cooking for 20 minutes in citrate buffer (pH 6.0), followed by blocking of endogenous peroxidase in 3% H2O2. The antibodies were added and incubated overnight at 4° C. Antibodies were detected using a secondary-HRP labeled mouse or rabbit antibody detection system (Dako EnVision+ System-HRP cat #k4401, cat #k4403) followed by addition 3,3′-Diaminobenzidine (DAB) chromagen (Vector Labs) for visualization. Sections were counter-stained with hematoxylin (Fisher Scientific Inc., Canada) and slides dehydrated in 70, 80, and 100% ethanol and xylene. Slides were cover slipped and mounted in Permount (Fisher Scientific Inc.). Antibodies and concentrations for IHC are as follows: Ki67 (1:100, Dako, cat #F7268). All images were captured on a Leica DM 100 microscope using Leica Application Suite Software (Switzerland, Version 3.8.0).
(§2) All animal procedures were carried out ethically according to animal user protocols approved by Institutional Animal Care Committee (IACUC). 4-6 week-old non-obese diabetic severe combined immune deficiency male or female mice (NOD-SCID-Prkdc^scid) were injected with 1×10^5 SU-DIPG-13p cells or 1×10^5 SF8628 DIPG cells. […]

For the next assay, the system named is DIPG-13p cells xenograft. The assay can be described thus: DIPG-13p orthotopic xenograft model. Format: in vivo, mice. As to conditions: 50 mg/kg, 2 cycles of 5 days on 2 days off; DIPG-13p xenograft. The protocol:
as §1, §2

Assay [2] concerns the target T1, ERK5 (Homo sapiens, UniProt Q13164). The assay can be described thus: In vitro kinase assay of purified recombinant ERK5 and MYC. Format: biochemical. More on the design: purchased ThermoFisher Scientific A32872. As to conditions: 200 μM ATP, 30 minutes at 30° C. Here is the method:
Purified active recombinant ERK5 protein was purchased from ThermoFisher Scientific (Cat #A32872) and purified recombinant MYC was purchased from Abcam (Cat #ab84132). Purified ERK5 and MYC were resuspended in 40 μl of 1× kinase buffer supplemented with 200 μM ATP, 0.25 μg substrate, and 1.0 μg purified recombinant and active kinase. Samples were incubated in the presence or absence of ERK5 inhibitors for 30 minutes at 30° C. The reaction was terminated with 20 μl 3×SDS sample buffer. Samples were then boiled at 100° C. for 5 minutes and then evaluated by western blotting using a phospho MYC ser62 antibody (1:1000). 1× Kinase Buffer recipe: 25 mM Tris (pH 7.5), 5 mM β-glycerophosphate, 2 mM DTT, 0.1 mM Na3VO4, 10 mM MgCl2.

The target of assay [3] is T1, ERK5. As to the kind of experiment: Western blot of ERK5 phosphorylation sites in DIPG cells. It counts as cell-based. More on the design: endogenous in cells; host or cells: DIPG-007 and DIPG-IV cells. As to conditions: DIPG-007 and DIPG-IV cells. Here is the method: (§3) Cell pellets were lysed in PLC lysis buffer containing protease and phosphatase inhibitors (Roche Inc.). Protein lysates were quantified using the bicinchoninic acid (BCA) assay (Pierce Chemical Co., Rockford, Ill.). 30 μg of total protein lysate was loaded in 10% SDS-PAGE gels and electrophoresed. Proteins were transferred to PVDF membranes using a semi-dry transfer apparatus (Bio-Rad). Membranes were blocked for one hour and probed for various proteins overnight in 5% non-fat milk or 5% BSA in Tris Buffered Saline Solution, 0.5% Tween-20 (TBST) or Phosphate Buffered Saline Solution with 0.5% Tween-20 (PBST). Membranes were washed for 5 mins in TBST (3×) and incubated with horseradish peroxidase-conjugated antibodies specific for the primary antibody (BioRad Laboratories, Inc., CA, USA). Binding was detected using Chemiluminescence Reagent Plus (PerkinElmer Inc., MA, USA).
A general note: In western blotting, separated proteins are transferred to a membrane and probed.

Assay [4] addresses T1, ERK5. The assay can be described thus: Western blot of tumor lysates from treated mice (pERK5, cleaved PARP). It counts as in vivo. Details: from tissue; host or cells: Tumour lysates from orthotopic DIPG xenografts (SF8628 or DIPG-13p) in NOD-SCID mice. Conditions: mice sacrificed after 5 days of treatment. Here is the method: as §3, with “MA, USA). Antibodies were used at the following dilutions:” for “MA, USA).”
as §2

T1 sequence (Q13164 whole entry): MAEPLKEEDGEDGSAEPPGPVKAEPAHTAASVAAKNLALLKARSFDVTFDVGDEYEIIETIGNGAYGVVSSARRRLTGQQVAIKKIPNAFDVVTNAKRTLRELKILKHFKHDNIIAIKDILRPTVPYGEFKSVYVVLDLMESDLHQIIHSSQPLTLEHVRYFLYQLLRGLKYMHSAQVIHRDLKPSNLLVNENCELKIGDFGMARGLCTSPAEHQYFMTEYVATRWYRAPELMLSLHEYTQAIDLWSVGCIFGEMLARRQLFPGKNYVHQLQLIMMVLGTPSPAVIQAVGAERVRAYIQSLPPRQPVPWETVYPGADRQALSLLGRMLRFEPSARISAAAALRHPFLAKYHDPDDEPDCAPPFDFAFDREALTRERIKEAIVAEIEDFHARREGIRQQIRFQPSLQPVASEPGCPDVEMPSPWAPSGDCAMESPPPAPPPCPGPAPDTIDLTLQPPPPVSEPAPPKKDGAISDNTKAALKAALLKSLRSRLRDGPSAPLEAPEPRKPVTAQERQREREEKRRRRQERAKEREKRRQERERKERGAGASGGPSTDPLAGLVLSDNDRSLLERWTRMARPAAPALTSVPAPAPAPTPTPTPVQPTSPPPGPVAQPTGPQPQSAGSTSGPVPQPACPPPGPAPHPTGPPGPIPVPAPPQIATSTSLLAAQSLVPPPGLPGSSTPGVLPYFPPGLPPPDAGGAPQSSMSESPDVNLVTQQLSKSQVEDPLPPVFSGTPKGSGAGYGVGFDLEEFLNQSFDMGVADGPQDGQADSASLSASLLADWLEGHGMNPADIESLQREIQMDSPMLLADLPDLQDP

On to `CCOc1cc(C(=O)N2CCC(N3CCN(C)CC3)CC2)ccc1Nc1ncc2c(n1)N(C1CCCC1)c1ccccc1C(=O)N2C` [ERK5-IN-1, 11-cyclopentyl-2-[[2-ethoxy-4-[[4-(4-methyl-1-piperazinyl)-1-piperidinyl]carbonyl]phenyl]amino]-5,11-dihydro-5-methyl-6H-pyrimido[4,5b][1,4]benzodiazepin-6-one], for which the “MYCN protein and transcript levels” value in the assay on MYCN is reported as “down-regulation”. In addition, the median survival in assay [1] (50 mg/kg for 2 weeks (2 cycles of 5 days on 2 days off), SF8628 intracranial xenografts) is recorded as 40 days. In addition, the KI-67 staining result in assay [1] (50 mg/kg, SF8628 xenograft tumors, vs vehicle) is given as “reduced”. The same compound yielded a median survival in the assay on DIPG-13p cells xenograft of 30 days. The “Phosphorylation of MYC(S62)” value on ERK5 [2] is “inhibited”. Also, at ERK5 [3], the “ERK5 Thr218/Tyr220 phosphorylation (regulated by MEK5)” value was “did not inhibit”. The “ERK5 auto-phosphorylation and ERK5 activity sites (Ser731 and Thr733)” value on ERK5 [3] (at 100 nM) is “inhibit”. Further, at ERK5 [4], the “apoptosis by cleaved PARP in vivo” value is “induction of apoptosis” and the “in vivo ERK5 auto-phosphorylation” value is “inhibition of ERK5 auto-phosphorylation”.
